# From patent US20230096766A1, “AMINO ACID HAVING FUNCTIONAL GROUP CAPABLE OF INTERMOLECULAR HYDROGEN BONDING, PEPTIDE COMPOUND CONTAINING SAME AND METHOD FOR PRODUCTION THEREOF” (Chugai Seiyaku Kabushiki Kaisha, priority 2018, published 2023)
# *1 amine or outer side, *2 acyl side, *3 side chain or, on linkers, in order; H or OH if unused. Where a SMILES comes first, the peptide text is derived from it. Bridges are numbered along the chain shown (N, C = ends). [ ]: non-standard residue; d: D form. The star is where a group is joined. hPhe(3-OMe,4-CONHMe) = CNC(=O)c1ccc(CC[C@H](N)C(=O)O)cc1OC; Phe(3-OMe,4-CONHMe) = CNC(=O)c1ccc(C[C@H](N)C(=O)O)cc1OC; X11 = CNC(=O)c1ccc(CCN(CC(=O)[*:2])[*:1])cc1OC; NMePhe(3-Cl) = CN[C@@H](Cc1cccc(Cl)c1)C(=O)O; X12 = O=C([C@H](CCCC(O)C(F)(F)F)N[*:1])[*:2]; NMeW = CN[C@@H](Cc1c[nH]c2ccccc12)C(=O)O; NMehPhe = CN[C@@H](CCc1ccccc1)C(=O)O; X6 = O=C([C@H](CCCCO)N[*:1])[*:2]; NMeF = CN[C@@H](Cc1ccccc1)C(=O)O; NMeGABA = CN(CCCC(=O)[*:2])[*:1]; NMeI = CC[C@H](C)[C@H](NC)C(=O)O; CH2CH(OH)CF3 = OC(C*)C(F)(F)F; CH2CONHtBu = CC(C)(C)NC(=O)C*; NMeL = CN[C@@H](CC(C)C)C(=O)O; Butyl(3R-OH) = C[C@@H](O)CC*; Propyl(2R-OH) = C[C@@H](O)C*; NMeV = CN[C@H](C(=O)O)C(C)C; NMeAbu = CC[C@H](NC)C(=O)O; NMeA = CN[C@@H](C)C(=O)O; Piperidide = C1CCN(*)CC1; dAbu = CC[C@@H](N)C(=O)O; X8 = C1COC[C@@H](C*)N1; CH2CONHMe = CNC(=O)C*; NBuGly = CCCCNCC(=O)O; Isopentyl = CC(C)CC*; NPrGly = CCCNCC(=O)O; Propyl(3-OH) = OCCC*; Ethyl(2-OH) = OCC*; Sar = CNCC(=O)O; tBu = CC(C)(C)*
# Experiment: in vitro
# Settings: human, Caco-2, Caco-2 (cm/sec)
row,Compound,Papp [×10⁻⁶ cm/s]
1,CCCN1CC(=O)N(C)[C@@H](CC(C)C)C(=O)N[C@@H](COCCC(C)C)C(=O)N(C)[C@@H](Cc2ccccc2)C(=O)N(C)[C@@H](CC(C)C)C(=O)N[C@H](C(=O)N2CCCCC2)CC(=O)N[C@H](CC)C(=O)N(C)[C@@H](CCc2ccccc2)C(=O)N[C@@H](CCCCO)C(=O)N(C)[C@@H](CC(C)C)C(=O)N[C@@H]([C@@H](C)O)C1=O [Compound B01] ([dAbu][NMehPhe][X6][NMeL]T[NPrGly][NMeL]S(Isopentyl)[NMeF][NMeL]D-Piperidide; lactam N-11),< 0.11
2,"CCCCN1CC(=O)N(C)[C@@H](CC(C)C)C(=O)N[C@@H](COC(C)(C)C)C(=O)N(C)[C@@H](Cc2ccccc2)C(=O)N(C)[C@@H](CC(C)C)C(=O)N[C@H](C(=O)N2CCCCC2)CC(=O)N[C@H](C(C)C)C(=O)N(C)[C@@H](C(C)C)C(=O)N[C@@H](Cc2ccc(C(=O)NC)c(OC)c2)C(=O)N(C)[C@@H](CC(C)C)C(=O)N[C@@H]([C@@H](C)O)C1=O [AP27] ([dV][NMeV][Phe(3-OMe,4-CONHMe)][NMeL]T[NBuGly][NMeL]S(tBu)[NMeF][NMeL]D-Piperidide; lactam N-11)",0.91
3,CCCCN1CC(=O)N(C)[C@@H](Cc2ccccc2)C(=O)N(C)[C@@H](CC(C)C)C(=O)N[C@@H](COC(C)(C)C)C(=O)N(C)[C@@H](CC(C)C)C(=O)N[C@H](C(=O)N2CCCCC2)CC(=O)N(C)CC(=O)N(C)[C@@H](Cc2ccccc2)C(=O)N[C@@H](C(C)C)C(=O)N(C)[C@@H](CC(C)C)C(=O)N[C@@H](COC[C@@H](C)O)C1=O [AP87] ([Sar][NMeF]V[NMeL]S(Propyl(2R-OH))[NBuGly][NMeF][NMeL]S(tBu)[NMeL]D-Piperidide; lactam N-11),1
4,CC(C)C[C@@H]1NC(=O)[C@H](CC(C)C)N(C)C(=O)C[C@@H](C(=O)N2CCCCC2)NC(=O)[C@H](CC(C)C)N(C)C(=O)CN(C)C(=O)[C@H]([C@@H](C)O)NC(=O)[C@H](CC(C)C)N(C)C(=O)[C@H](Cc2ccccc2)N(C)C(=O)[C@H](COCCCO)NC(=O)[C@H](Cc2ccccc2)N(C)C(=O)[C@H](CC(C)C)N(C)C1=O [AP94] ([NMeL]L[NMeL][NMeF]S(Propyl(3-OH))[NMeF][NMeL]T[Sar][NMeL]D-Piperidide; lactam N-11),0.35
5,CC(C)C[C@H]1C(=O)N[C@@H]([C@@H](C)O)C(=O)N(C)[C@@H](CC(C)C)C(=O)N(C)[C@@H](CC(C)C)C(=O)N[C@H](C(=O)N2CCCCC2)CC(=O)N(C)CCCC(=O)N(C)[C@@H](C(C)C)C(=O)N[C@@H](COCC[C@@H](C)O)C(=O)N(C)[C@@H](Cc2ccccc2)C(=O)N(C)[C@@H](Cc2cccc(Cl)c2)C(=O)N[C@@H](COC(C)(C)C)C(=O)N1C [AP110] ([NMeGABA][NMeV]S(Butyl(3R-OH))[NMeF][NMePhe(3-Cl)]S(tBu)[NMeL]T[NMeL][NMeL]D-Piperidide; lactam N-11),0.23
6,CCCN1CC(=O)N(C)[C@@H](CC(C)C)C(=O)N[C@H](C(=O)N2CCCCC2)CC(=O)N(C)[C@@H](C)C(=O)N[C@@H](COCCO)C(=O)N(C)[C@@H](CC(C)C)C(=O)N(C)[C@@H](Cc2cccc(Cl)c2)C(=O)N[C@@H](CC(C)C)C(=O)N(C)[C@@H](CCc2ccccc2)C(=O)N(C)[C@@H](CC(C)C)C(=O)N[C@@H]([C@@H](C)O)C1=O [Compound A05] ([NMeA]S(Ethyl(2-OH))[NMeL][NMePhe(3-Cl)]L[NMehPhe][NMeL]T[NPrGly][NMeL]D-Piperidide; lactam N-11),0.9
7,CCCCN1CC(=O)N(C)[C@@H](CC(C)C)C(=O)N[C@@H]([C@@H](C)CC)C(=O)N(C)[C@@H](Cc2ccccc2)C(=O)N[C@@H]([C@@H](C)O)C(=O)N(CCCC)CC(=O)N(C)[C@@H](CC(C)C)C(=O)N(C)[C@@H](Cc2ccccc2)C(=O)N[C@@H](COCC(=O)NC(C)(C)C)C(=O)N(C)[C@@H](C)C(=O)N[C@H](C(=O)N2CCCCC2)CC1=O [AP19] ([NBuGly][NMeL]I[NMeF]T[NBuGly][NMeL][NMeF]S(CH2CONHtBu)[NMeA]D-Piperidide; lactam N-11),0.88
8,"CC[C@H]1C(=O)N[C@@H](CCc2ccc(C(=O)NC)c(OC)c2)C(=O)N(C)[C@@H](CC(C)C)C(=O)N(C)[C@@H](CC(C)C)C(=O)N[C@@H](C(C)C)C(=O)N(C)[C@@H](Cc2ccccc2)C(=O)N(C)[C@@H](CC(C)C)C(=O)N[C@@H]([C@@H](C)O)C(=O)N(C)CC(=O)N(C)[C@@H](CC(C)C)C(=O)N[C@H](C(=O)N2CCCCC2)CC(=O)N1C [AP205] ([NMeAbu][hPhe(3-OMe,4-CONHMe)][NMeL][NMeL]V[NMeF][NMeL]T[Sar][NMeL]D-Piperidide; lactam N-11)",0.79
9,CC(C)C[C@H]1C(=O)N(C)[C@@H](CC(C)C)C(=O)N(C)[C@@H](Cc2c[nH]c3ccccc23)C(=O)N[C@@H]([C@@H](C)O)C(=O)N(C)[C@@H](C)C(=O)N(C)[C@@H](CC(C)C)C(=O)N[C@H](C(=O)N2CCCCC2)CC(=O)N(C)[C@@H](C)C(=O)N(C)[C@@H](CC(C)C)C(=O)N(C)[C@@H](CC(C)C)C(=O)N[C@@H](C)C(=O)N1C [pd105] ([NMeA][NMeL][NMeL]A[NMeL][NMeL][NMeW]T[NMeA][NMeL]D-Piperidide; lactam N-11),0.28
10,CC(C)C[C@@H]1NC(=O)[C@H](C(C)C)N(C)C(=O)C[C@@H](C(=O)N2CCCCC2)NC(=O)[C@H](CC(C)C)N(C)C(=O)CN(C)C(=O)[C@H]([C@@H](C)O)NC(=O)[C@H](CC(C)C)N(C)C(=O)[C@H](CCc2ccccc2)N(C)C(=O)[C@H](COCCO)NC(=O)[C@H](Cc2ccccc2)N(C)C(=O)[C@H](CC(C)C)N(C)C1=O [Compound A06] ([NMeV]L[NMeL][NMeF]S(Ethyl(2-OH))[NMehPhe][NMeL]T[Sar][NMeL]D-Piperidide; lactam N-11),0.53
11,CCCCN1CC(=O)N(C)[C@@H](CC(C)C)C(=O)N[C@H](C(=O)N2CCCCC2)CC(=O)N(C)[C@@H](C)C(=O)N[C@@H](COC[C@@H](C)O)C(=O)N(C)[C@@H](CC(C)C)C(=O)N(C)[C@@H](Cc2cccc(Cl)c2)C(=O)N[C@@H](CC(C)C)C(=O)N(C)[C@@H](Cc2ccccc2)C(=O)N(C)[C@@H]([C@@H](C)CC)C(=O)N[C@@H]([C@@H](C)O)C1=O [AP75] ([NMeA]S(Propyl(2R-OH))[NMeL][NMePhe(3-Cl)]L[NMeF][NMeI]T[NBuGly][NMeL]D-Piperidide; lactam N-11),1.1
12,CC[C@H]1C(=O)N[C@@H]([C@@H](C)O)C(=O)N(CCc2ccc(C(=O)NC)c(OC)c2)CC(=O)N(C)[C@@H](CC(C)C)C(=O)N[C@@H](COC(C)(C)C)C(=O)N(C)[C@@H](CC(C)C)C(=O)N(C)[C@@H](CC(C)C)C(=O)N[C@H](C(=O)N2CCCCC2)CC(=O)N[C@H](C)C(=O)N(C)[C@@H](Cc2ccccc2)C(=O)N[C@@H](CC(C)C)C(=O)N1C [AP216] ([dA][NMeF]L[NMeAbu]T[X11][NMeL]S(tBu)[NMeL][NMeL]D-Piperidide; lactam N-11),0.99
13,CCCCN1CC(=O)N(C)[C@@H](Cc2ccccc2)C(=O)N(C)[C@@H](CC(C)C)C(=O)N[C@@H](Cc2ccc(O)cc2)C(=O)N(C)[C@@H](CC(C)C)C(=O)N[C@H](C(=O)N2CCCCC2)CC(=O)N(C)CC(=O)N(C)[C@@H](CC(C)C)C(=O)N[C@@H]([C@@H](C)CC)C(=O)N(C)[C@@H](CC(C)C)C(=O)N[C@@H]([C@@H](C)O)C1=O [Compound F08] ([Sar][NMeL]I[NMeL]T[NBuGly][NMeF][NMeL]Y[NMeL]D-Piperidide; lactam N-11),0.05
14,CCCCN1CC(=O)N(C)[C@@H](CC(C)C)C(=O)N[C@H](C(=O)N2CCCCC2)CC(=O)N(C)[C@@H](CC)C(=O)N[C@@H](CC(C)C)C(=O)N(C)[C@@H](CC(C)C)C(=O)N(C)[C@@H](Cc2ccccc2)C(=O)N[C@@H](COC[C@@H]2COCCN2)C(=O)N(C)[C@@H](CC)C(=O)N(C)[C@@H](CC(C)C)C(=O)N[C@@H]([C@@H](C)O)C1=O [AP242] ([NMeAbu]L[NMeL][NMeF]S(X8)[NMeAbu][NMeL]T[NBuGly][NMeL]D-Piperidide; lactam N-11),1.2

# Same assay, conditions: human, Caco-2, Caco-2 (cm/sec) Papp
row,Compound,Papp [×10⁻⁶ cm/s]
1,CC(C)C[C@@H]1NC(=O)[C@H](CC(C)C)N(C)C(=O)[C@@H](C)NC(=O)C[C@@H](C(=O)N2CCCCC2)NC(=O)[C@H](Cc2ccccc2)N(C)C(=O)[C@H](Cc2ccccc2)N(C)C(=O)[C@H](C)N(C)C(=O)[C@H]([C@@H](C)O)NC(=O)[C@H](Cc2ccccc2)N(C)C(=O)[C@H](COC(C)(C)C)NC(=O)[C@H](Cc2ccccc2)N(C)C1=O [pd234] ([dA][NMeL]L[NMeF]S(tBu)[NMeF]T[NMeA][NMeF][NMeF]D-Piperidide; lactam N-11),0.15

# Same assay, conditions: human, Caco-2, Caco-2 (membrane permeability)
row,Compound,Papp [×10⁻⁶ cm/s]
1,CCCN1CC(=O)N(C)[C@@H](CC(C)C)C(=O)N[C@H](C(=O)N2CCCCC2)CC(=O)N(C)[C@@H](CC(C)C)C(=O)N[C@@H](Cc2ccccc2)C(=O)N(C)[C@@H](CC(C)C)C(=O)N(C)[C@@H](CC(C)C)C(=O)N[C@@H](COCC(=O)NC)C(=O)N(C)[C@@H](CCc2ccccc2)C(=O)N(C)[C@@H](CC(C)C)C(=O)N[C@@H]([C@@H](C)O)C1=O [Compound I04] ([NMeL]F[NMeL][NMeL]S(CH2CONHMe)[NMehPhe][NMeL]T[NPrGly][NMeL]D-Piperidide; lactam N-11),0.55
2,CC[C@H](C)[C@H]1C(=O)N[C@@H]([C@@H](C)O)C(=O)N(C)CC(=O)N(C)[C@@H](CC(C)C)C(=O)N[C@H](C(=O)N2CCCCC2)CC(=O)N(C)[C@@H](C(C)C)C(=O)N[C@@H](CCCC(O)C(F)(F)F)C(=O)N(C)[C@@H](CC(C)C)C(=O)N(C)[C@@H](Cc2ccccc2)C(=O)N[C@@H](CC(C)C)C(=O)N(C)[C@@H](Cc2ccccc2)C(=O)N1C (stereo partly drawn) [Compound D08] ([NMeV][X12][NMeL][NMeF]L[NMeF][NMeI]T[Sar][NMeL]D-Piperidide; lactam N-11),0.53
3,CCCCN1CC(=O)N(C)[C@@H](CC(C)C)C(=O)N[C@H](C(=O)N2CCCCC2)CC(=O)N(C)[C@@H](C)C(=O)N[C@@H](COCC(O)C(F)(F)F)C(=O)N(C)[C@@H](CC(C)C)C(=O)N(C)[C@@H](Cc2ccccc2)C(=O)N[C@@H](CC(C)C)C(=O)N(C)[C@@H](Cc2ccccc2)C(=O)N(C)[C@@H]([C@@H](C)CC)C(=O)N[C@@H]([C@@H](C)O)C1=O (stereo partly drawn) [Compound C04] ([NMeA]S(CH2CH(OH)CF3)[NMeL][NMeF]L[NMeF][NMeI]T[NBuGly][NMeL]D-Piperidide; lactam N-11),0.29
